Assays:
[1] = target: Vasopressin V1a receptor (Homo sapiens, UniProt P37288); format: cell membranes, Membrane; settings: hek293; also: in other assays of this panel Not Active means under 50% inhibition at 10 µM
[2] = target: Cannabinoid receptor 1 (Homo sapiens, UniProt P21554); format: cell membranes, Membrane; settings: chem-1; also: in other assays of this panel Not Active means under 50% inhibition at 10 µM
[3] = target: T1, C-C chemokine receptor type 4 (Homo sapiens, UniProt P51679); format: cell membranes, Membrane; settings: chem-1; also: in other assays of this panel Not Active means under 50% inhibition at 10 µM
T1 sequence (P51679 whole entry): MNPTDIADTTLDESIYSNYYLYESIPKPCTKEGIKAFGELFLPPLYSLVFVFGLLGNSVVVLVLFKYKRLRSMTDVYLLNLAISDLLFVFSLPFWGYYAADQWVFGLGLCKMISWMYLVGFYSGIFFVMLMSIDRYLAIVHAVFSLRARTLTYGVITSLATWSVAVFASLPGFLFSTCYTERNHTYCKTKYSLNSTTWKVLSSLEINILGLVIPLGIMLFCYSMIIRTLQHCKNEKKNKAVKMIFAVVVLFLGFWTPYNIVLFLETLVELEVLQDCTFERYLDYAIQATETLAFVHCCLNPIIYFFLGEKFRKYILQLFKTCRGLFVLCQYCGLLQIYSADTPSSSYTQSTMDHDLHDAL

[4] = target: C-C chemokine receptor type 5 (Homo sapiens, UniProt P51681); format: cell membranes, Membrane; settings: hek293; also: in other assays of this panel Not Active means under 50% inhibition at 10 µM
[5] = target: T2, C-X-C chemokine receptor type 1 (Homo sapiens, UniProt P25024); also: in other assays of this panel Not Active means under 50% inhibition at 10 µM
T2 sequence (P25024 whole entry): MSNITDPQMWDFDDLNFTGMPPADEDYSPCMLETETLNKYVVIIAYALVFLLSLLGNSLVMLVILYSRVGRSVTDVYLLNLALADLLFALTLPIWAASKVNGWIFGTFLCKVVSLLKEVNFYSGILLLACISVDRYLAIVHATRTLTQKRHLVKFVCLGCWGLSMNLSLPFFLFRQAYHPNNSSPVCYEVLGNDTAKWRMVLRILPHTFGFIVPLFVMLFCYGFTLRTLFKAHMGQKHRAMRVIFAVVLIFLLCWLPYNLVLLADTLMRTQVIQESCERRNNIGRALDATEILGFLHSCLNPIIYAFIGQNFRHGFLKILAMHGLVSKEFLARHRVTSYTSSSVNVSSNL

[6] = DRUGMATRIX: Nicotinic Acetylcholine radioligand binding (ligand: [125I] Epibatidine); format: cell membranes, Membrane; settings: imr-32; Not Active = under 50% inhibition at 10 µM
[7] = DRUGMATRIX: Platelet-Derived Growth Factor (PDGF) radioligand binding (ligand: [125I] PDGF); format: cell-based; settings: nih3t3; Not Active = under 50% inhibition at 10 µM
[8] = target: Mitogen-activated protein kinase 14 (Homo sapiens, UniProt Q16539); set-up: species or system Escherichia coli
Sequence of Mitogen-activated protein kinase 14 (Q16539 whole entry): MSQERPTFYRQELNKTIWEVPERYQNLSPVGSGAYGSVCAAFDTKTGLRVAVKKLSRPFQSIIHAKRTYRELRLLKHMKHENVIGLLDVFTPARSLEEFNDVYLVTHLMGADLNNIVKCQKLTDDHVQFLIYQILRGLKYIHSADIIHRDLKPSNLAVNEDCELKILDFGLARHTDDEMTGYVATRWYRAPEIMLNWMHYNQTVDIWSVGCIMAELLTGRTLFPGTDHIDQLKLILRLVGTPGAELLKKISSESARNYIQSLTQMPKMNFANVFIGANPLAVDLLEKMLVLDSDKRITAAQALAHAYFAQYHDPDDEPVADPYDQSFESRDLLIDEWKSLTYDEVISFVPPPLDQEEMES

Sequence of Cannabinoid receptor 1 (P21554 whole entry): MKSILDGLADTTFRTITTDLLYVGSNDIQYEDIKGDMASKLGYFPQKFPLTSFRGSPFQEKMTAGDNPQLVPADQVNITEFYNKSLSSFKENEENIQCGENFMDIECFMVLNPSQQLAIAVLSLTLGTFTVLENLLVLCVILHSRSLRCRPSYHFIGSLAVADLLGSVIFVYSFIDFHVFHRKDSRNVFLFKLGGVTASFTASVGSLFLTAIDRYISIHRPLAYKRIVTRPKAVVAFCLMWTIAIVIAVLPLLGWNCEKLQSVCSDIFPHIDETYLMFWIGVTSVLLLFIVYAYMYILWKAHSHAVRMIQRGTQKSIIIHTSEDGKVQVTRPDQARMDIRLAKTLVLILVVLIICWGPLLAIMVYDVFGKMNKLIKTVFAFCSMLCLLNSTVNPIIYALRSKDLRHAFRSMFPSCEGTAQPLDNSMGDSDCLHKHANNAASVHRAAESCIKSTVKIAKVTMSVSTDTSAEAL
Sequence of C-C chemokine receptor type 5 (P51681 whole entry): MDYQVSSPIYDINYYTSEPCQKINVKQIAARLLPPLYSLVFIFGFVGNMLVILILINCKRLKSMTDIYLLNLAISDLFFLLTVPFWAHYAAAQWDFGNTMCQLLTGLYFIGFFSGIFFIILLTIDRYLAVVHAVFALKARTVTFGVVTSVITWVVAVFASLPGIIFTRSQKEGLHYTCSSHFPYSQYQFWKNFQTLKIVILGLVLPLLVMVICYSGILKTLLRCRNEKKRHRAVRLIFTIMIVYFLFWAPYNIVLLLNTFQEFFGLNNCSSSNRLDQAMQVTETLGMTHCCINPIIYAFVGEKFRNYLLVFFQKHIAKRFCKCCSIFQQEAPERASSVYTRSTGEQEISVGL
Sequence of Vasopressin V1a receptor (P37288 whole entry): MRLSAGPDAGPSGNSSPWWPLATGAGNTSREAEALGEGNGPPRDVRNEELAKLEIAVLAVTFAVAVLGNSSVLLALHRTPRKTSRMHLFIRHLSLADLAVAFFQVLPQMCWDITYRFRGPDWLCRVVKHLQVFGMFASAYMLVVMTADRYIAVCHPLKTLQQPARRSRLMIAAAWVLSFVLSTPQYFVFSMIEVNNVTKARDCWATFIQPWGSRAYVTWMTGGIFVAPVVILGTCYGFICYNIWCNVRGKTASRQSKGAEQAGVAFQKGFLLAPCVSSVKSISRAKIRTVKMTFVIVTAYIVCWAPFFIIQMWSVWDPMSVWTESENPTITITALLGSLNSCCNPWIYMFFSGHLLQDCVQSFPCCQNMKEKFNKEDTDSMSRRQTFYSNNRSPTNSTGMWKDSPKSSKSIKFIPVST

O=C(O)c1cc(=O)c2c(OCC(O)COc3cccc4oc(C(=O)O)cc(=O)c34)cccc2o1 [CROMOLYN]
Not Active: IC50 [1] | IC50 [2] | IC50 [3] | IC50 [4] | IC50 [5] | IC50 [6] | Ki [6] | IC50 [7] | Ki [7] | IC50 [8]

O=C(/C=C/c1ccc(O)c(O)c1)OCCc1ccccc1 [CAFFEIC ACID PHENETHYL ESTER]
Not Active: IC50 [1] | IC50 [2] | IC50 [3] | IC50 [4] | IC50 [5] | IC50 [6] | Ki [6] | IC50 [7] | Ki [7] | IC50 [8]

Nc1nc(Cl)nc2c1ncn2[C@H]1C[C@H](O)[C@@H](CO)O1 [CLADRIBINE]
Not Active: IC50 [1] | IC50 [2] | IC50 [3] | IC50 [4] | IC50 [5] | IC50 [6] | Ki [6] | IC50 [7] | Ki [7] | IC50 [8]

CN1C[C@H](C(=O)N[C@]2(C)O[C@@]3(O)[C@@H]4CCCN4C(=O)[C@H](Cc4ccccc4)N3C2=O)C[C@@H]2c3cccc4[nH]cc(c34)C[C@H]21 [DIHYDROERGOTAMINE]
Not Active: IC50 [1] | IC50 [2] | IC50 [3] | IC50 [4] | IC50 [5] | IC50 [6] | Ki [6] | IC50 [7] | Ki [7] | IC50 [8]

CC[C@H](C)C(=O)O[C@H]1C[C@@H](C)C=C2C=C[C@H](C)[C@H](CC[C@@H]3C[C@@H](O)CC(=O)O3)[C@H]21 [LOVASTATIN]
Not Active: IC50 [1] | IC50 [2] | IC50 [3] | IC50 [4] | IC50 [5] | IC50 [6] | Ki [6] | IC50 [7] | Ki [7] | IC50 [8]

CC[C@H](C)C(=O)O[C@H]1C[C@H](O)C=C2C=C[C@H](C)[C@H](CC[C@@H](O)C[C@@H](O)CC(=O)O)[C@H]21 [PRAVASTATIN]
Not Active: IC50 [1] | IC50 [2] | IC50 [3] | IC50 [4] | IC50 [5] | IC50 [6] | Ki [6] | IC50 [7] | Ki [7] | IC50 [8]

CCOC(=O)n1ccn(C)c1=S [CARBIMAZOLE]
Not Active: IC50 [1] | IC50 [2] | IC50 [3] | IC50 [4] | IC50 [5] | IC50 [6] | Ki [6] | IC50 [7] | Ki [7] | IC50 [8]

C#C[C@]1(O)CC[C@H]2[C@@H]3CCC4=Cc5oncc5C[C@]4(C)[C@H]3CC[C@@]21C [DANAZOL]
Not Active: IC50 [1] | IC50 [2] | IC50 [3] | IC50 [4] | IC50 [5] | IC50 [6] | Ki [6] | IC50 [7] | Ki [7] | IC50 [8]

— ChEMBL document CHEMBL1909046, “DrugMatrix in vitro pharmacology data”
